Common to all, as to format: in vitro ADME
Series [1] relates to Plasma protein. Nature of the series: plasma protein binding, Rapid Equilibrium Dialysis (RED), mouse. To be noted: 5 µM, 4h at 37°C, (*) low recovery for (If). The procedure: (§1) Plasma from Seralab was employed in the assay and was carried out by employing Rapid Equilibrium Dialysis (RED) from Thermo Scientific.
(§2) The compounds were dissolved at 5 µM in plasma and added to the corresponding insert of the RED device. Dialysis buffer was added to the corresponding insert of the RED device. Plate was incubated for 4h at 37°C.
(§3) After the incubation period 50 µL aliquots of each chamber were transferred to empty vials. 50 µL of dialysis buffer were added to the plasma samples and 50 µL of plasma were added to the buffer samples. 300 µL of acetonitrile were added to all the samples and centrifuged at 4000 rpm 100 µL aliquots of the supernatants were transferred to a LC analysis plate. Samples were analyzed in a UPLC/MS/MS. Stationary phase: Acquity UPLC® BEHC18 1,7 µm (2.1 mm x 50 mm) (Waters). Gradient: A (H2O + 0.1% Formic acid); B (ACN + 0.1% Formic acid); Flow: 0.6mL/min Table 8: UPLC gradient / Protein binding assay
(§4) The chromatographic equipment employed was an ACQUITY UPLC / Xevo TQD System. Compound concentrations were calculated from the MS peak areas. Table 9: Plasma protein binding of the compounds of formula (I) in rat, mice, dogs and humans / (*) low recovery
For orientation: In equilibrium dialysis only unbound substance equilibrates across the membrane.

Assay in series [2]: as above
To be noted: 4h at 37°C, (*) low recovery for (If). The procedure: as §1, §2, §3, §4

Series [3] relates to Plasma protein. Nature of the series: plasma protein binding, Rapid Equilibrium Dialysis (RED), rat. Conditions: 5 µM, 4h at 37°C. As to the method: as §1, §2, §3, §4
Assay in series [4]: as above
To be noted: 4h at 37°C. As to the method: as §1, §2, §3, §4

Series [5] relates to Plasma protein. Briefly: plasma protein binding, Rapid Equilibrium Dialysis (RED), dog. Conditions: 5 µM, 4h at 37°C. As to the method:
as §1, §2, §3, §4

Assay in series [6]: as above
Conditions: 4h at 37°C. The procedure: as §1, §2, §3, §4

Series [7] concerns Plasma protein. Nature of the series: plasma protein binding, Rapid Equilibrium Dialysis (RED), human. Conditions: 5 µM, 4h at 37°C. As to the method:
as §1, §2, §3, §4

Assay in series [8]: as above
To be noted: 4h at 37°C. The procedure: as §1, §2, §3, §4

SMILES strings stand for the structures.

As usually defined, the fraction unbound is free concentration divided by total concentration. Read a high fraction unbound as weak binding. For `O=C1NC(=O)C(c2ccccc2)(c2ccccc2)N1` [Phenytoin, reference compound], the Unbound fraction was 17.94% with Plasma protein [1], 13.76% in the series on Plasma protein [3], 18.94% with Plasma protein [5] and 17.77% in the series with Plasma protein [7]. Moreover, the unbound share (fraction unbound) at 4 h, 5 µM in series [2] is 0.179; in series [4], 0.138; in series [6], 0.189; in series [8] it was 0.178.

(Values after patent EP4420661B1, “SMALL MOLECULES TARGETING GLYCOPROTEIN VI AS ANTIPLATELET AGENTS FOR USE IN THE PREVENTION AND/OR TREATMENT OF THROMBOSIS AND ASSOCIATED PATHOLOGIES” (Universidade de Santiago de Compostela, priority 2023, dated 2024).)
